In patent US20020142944A1, “Treatment of ocular disorders” (Erasmus Universiteit Rotterdam, priority 1999, published 2002):

What was measured:
[1] = system: bilateral cystoid macular edema; test: Treatment of cystoid macular edema, single patient; assay type: in vivo, human; settings: for effect on the edema or visual acuity: previous therapy before octreotide, eye drops / peribulbar injections
Method: One year later, they noticed blurred vision. Their visual acuity was 20/50 in the right eye and 20/40 in the left eye (by Snellen chart). […] Their visual acuity slowly deteriorated in the subsequent years. […] They had no family history of macular edema. […] The injections were stopped four weeks later, because there was no further improvement.
Treatment with 100 μg or octreotide subcutaneously once daily was resumed. […] […] stopped treatment a second time; after four weeks […] visual acuity was 20/70 in the right eye and 20/50 in the left eye. Octreotide therapy was resumed, and four weeks later […] visual acuity was 20/40 in each eye.

[2] = system: refractory CME due to chronic uveitis; test: Octreotide treatment of 10 patients with refractory CME due to chronic uveitis, three months; assay type: in vivo, human
Method: Patients were treated in accordance to the declaration of Helsinki. In this study, 10 consecutive patients from the Department of Ophthalmology, Erasmus University Medical Center, and the Eye Hospital Rotterdam, were selected because of refractory CME due to chronic uveitis. Since CME in uveitis can be influenced in time by multiple factors, only patients suffering from macular edema for more than 6 months were included, regardless of their immune suppressive treatment. Six patients had bilateral CME and four patients unilateral. Three patients with pars planitis needed no treatment for their inflammation but still had marked CME. Fluorescein angiography was performed within one week before starting octreotide treatment. Octreotide therapy was given after informed consent had been obtained. Dosage was started with 100 μg subcutaneously, on the first day, two times 100 μg on the second day and three times 100 μg from the third day onwards. When possible, the long-acting repeatable (LAR) formulation was prescribed in a dosage of 20 mg per 4 weeks intramuscularly, which became available during the studies. The dose of patient 3, a child, was adjusted for their age to 10 mg per month (im). Immune suppressive treatment was adjusted as based on inflammatory activity. Visual acuity was measured after 2, 4, and 12 weeks of treatment. Fluorescein angiography was repeated after three months of treatment.

[3] = after eight weeks of 100 μg subcutaneously three times daily, before treatment 20/100 in each eye
[4] = four weeks after second stop of treatment
[5] = three months after resuming 100 μg subcutaneously once daily
[6] = within two weeks after first stop of injections
[7] = after three months of treatment
[8] = three months therapy, 10 patients

`CC(=O)Nc1nnc(S(N)(=O)=O)s1` [acetazolamide] was tested, and the “effect on the edema or visual acuity” value [1] was “without beneficial effect”.

For `C[C@H]1C[C@H]2[C@@H]3CCC4=CC(=O)C=C[C@]4(C)[C@@]3(F)[C@@H](O)C[C@]2(C)[C@@]1(O)C(=O)CO` [betamehtasone, betamethasone], the “effect on the edema or visual acuity” value [1] was “without beneficial effect”.

In the case of `O=C(O)Cc1ccccc1Nc1c(Cl)cccc1Cl` [diclofenac], the “effect on the edema or visual acuity” value [1] is reported as “without beneficial effect”.

With `CCOC(=O)[C@H](CCc1ccccc1)N[C@@H](C)C(=O)N1CCC[C@H]1C(=O)O` [enalapril] the “effect on the edema or visual acuity” value [1] was “without beneficial effect”.

For `C[C@@H](O)[C@@H]1NC(=O)[C@H](CCCCN)NC(=O)[C@@H](Cc2c[nH]c3ccccc23)NC(=O)[C@H](Cc2ccccc2)NC(=O)[C@@H](NC(=O)[C@H](N)Cc2ccccc2)CSSC[C@@H](C(=O)N[C@H](CO)[C@@H](C)O)NC1=O` [octreotide], the “ophthalmoscopic finding, cystoid lesions” value ([1]; after eight weeks of 100 μg subcutaneously three times daily) was “the cysts had dried”, the “visual acuity in the left eye (Snellen chart)” value [1, 3] was 20/50 and the “visual acuity in the right eye (Snellen chart)” value [1, 3] was 20/40. For the same molecule, the “visual change noted by the patient” value ([1]; after six weeks of 100 μg subcutaneously three times daily) was “visual improvement”, the “visual acuity in each eye” value ([1]; four weeks after second resumption of therapy) was 20/40 and the “visual acuity in the left eye after stopping treatment” value [1, 4] was 20/50. The “visual acuity in the right eye after stopping treatment” value [1, 4] was 20/70, the fluorescein angiography finding [1, 5] was “some foveal fluorascein leakage” and the “visual acuity in each eye” value [1, 5] was 20/40. The “side effects from the treatment” value ([1]; whole course of treatment) was “no side effects”, the “ophthalmoscopic finding after stopping treatment” value [1, 6] was “some fluid was observed” and the “visual acuity in each eye after stopping treatment” value [1, 6] was 10/50. The “fluorescein angiographic macular edema clearly diminished” value [2, 7] was 3 eyes, the “fluorescein angiographic macular edema diminished but still visible” value [2, 7] was 9 eyes and the “fluorescein angiographic macular edema unaltered” value [2, 7] was 3 eyes. The ocular hypertension ([2]; at week 4, 10 patients) was “one”, the “diarrhoea (only side effect observed)” value ([2]; during the first days of treatment, 10 patients) was 4 patients and the “patients in whom visual acuity or inflammation activity deteriorated” value [2, 8] was “none”. The “patients with decreased inflammation, leading to tapered immunosuppressive therapy” value [2, 8] was “Four”, the “CME dissolved by stereoscopic examination” value ([2]; three months therapy, 10 patients, six bilateral and four unilateral CME) was 5 eyes and the “CME diminished by stereoscopic examination” value ([2]; three months therapy, further eyes beside those dissolved) was 11 eyes.
